In patent US11998600B2, “Enhancing the therapeutic activity of an immune checkpoint inhibitor” (MaineHealth, priority 2015, dated 2024):

How the values were obtained:
YAP = experiment: Nuclear YAP in HUVECs attached to collagen peptides; type: cell-based, human
Description: Whole cell and CAM tissue lysates were collected in RIPA buffer supplemented with 1× protease inhibitor and 1× phosphatase inhibitor and were run on polyacrylamide gels using denaturing conditions. Prior to loading the gels, 6× sample buffer was added to each of the lysates (final concentration 1×) and boiled for five minutes. Twenty to 50 μg of total protein were loaded into each lane. […] Gels were run at 60 volts (v) until the dye front passed through the stacking gel, and then the voltage was increased to 100V for the remainder of the separation. Precision Plus protein standards (Bio-Rad) were used to visualize migration. Protein was transferred to nitrocellulose membranes using a wet tank system and blocked for 1 h using 10% non-fat dried milk in tris-buffered saline with 0.01% Tween-20 (TBS-T). […] Membranes were washed 3 times in TBS-T for five minutes. Blots were then incubated with HRP conjugated secondary antibodies (1:15000) in 1% non-fat milk in TBS-T for 1 h. Membranes were washed a second time as indicated above and exposed to chemiluminecent substrate for three minutes prior to exposure to autoradiography film in a dark room. Western blot bands were quantified using Image J software based on pixel intensity.

β3-integrin = β3-integrin phosphorylation in endothelial cells attached to collagen peptides, Western blot; type: cell-based, human; details: HUVEC, absence of growth factors; FIG. 7C
Description: Endothelial cells (HUVECs or HRMVECs) were incubated in serum free media with 1 mM MgCl2, 0.2 mM MnCl2 in the presence of a Src inhibitor, PP2, (10 μM) a P38MAPK inhibitor, SB202190 (10 μM) or vehicle only (DMSO) for 10 min at 37° C. Treated cells were then seeded on to immobilized P-1 and P-2 and lysates were collected at 15 min.
Whole cell and CAM tissue lysates were collected in RIPA buffer supplemented with 1× protease inhibitor and 1× phosphatase inhibitor and were run on polyacrylamide gels using denaturing conditions. Prior to loading the gels, 6× sample buffer was added to each of the lysates (final concentration 1×) and boiled for five minutes. Twenty to 50 μg of total protein were loaded into each lane. For detection of proteins larger than 50 kD, 10% gels were used; for proteins smaller than 50 kD 15% gels were used. […] Western blot bands were quantified using Image J software based on pixel intensity.
Because both RGD containing peptides bind αvβ3 coupled with the differential effect of these peptides on angiogenesis and inflammation, it was determined whether the RGD peptides differentially altered αvβ3-mediated signaling. […] Therefore, the differential phosphorylation of these protein kinases following the early mechanical-mediated interactions with the RGD containing collagen peptides was assessed. […]

Sequence: QGPRGDKGE [Mab P-2]
- nuclear localized YAP (immunofluorescence), P-2 as compared to P-1 (YAP; 15 minutes after binding, no growth factor, FIG. 8A): enhanced level of nuclear localized YAP
- increase of nuclear YAP levels (Western blot), P-2 as compared to P-1 (YAP; nuclear fractions of HUVEC lysates, FIG. 8B): approximately 2 fold
- increase of β3 phosphorylation, P-2 as compared to P-1 (β3-integrin): over 3 fold
